Results reported in DBAASP.
Converted amounts (≈) assume the structure as drawn. “And” between values parts separate entries of the source, which are not always exact repeats. Identical values can stand only once.

Legend:
Experiment in all cases: ≥ marks a high value that may be exact or a test limit, other limits are often not marked, values filed in µg/mL are converted to µM
[1] = test system: Escherichia coli NCTC 12923
[2] = test system: Staphylococcus aureus USA 300
[3] = test system: Acinetobacter baumannii ATCC 17978
[4] = test system: Enterococcus faecalis ATCC 19433
[5] = test system: Klebsiella pneumoniae ATCC 13883
[6] = test system: Pseudomonas aeruginosa ATCC 27853
[7] = test system: Staphylococcus aureus ATCC 29213
[8] = test system: Pseudomonas aeruginosa ATCC 9027
[9] = test system: Klebsiella pneumoniae NCTC 13368
[10] = test system: Staphylococcus epidermidis ATCC 12228
[11] = test system: Pseudomonas aeruginosa ATCC BAA-2114
[12] = test system: Staphylococcus aureus ATCC 9144
[13] = test system: Staphylococcus aureus ATCC 33591
[14] = test system: Escherichia coli ATCC 25922
[15] = test system: Pseudomonas aeruginosa PAO1
[16] = test system: Staphylococcus aureus ATCC 43300
[17] = test system: Salmonella enterica subsp. enterica serovar Choleraesuis ATCC 10708
[18] = test system: Pseudomonas syringae pv. tomato DC3000
Botrytis cinerea = test system: Botrytis cinerea
[19] = test system: Xanthomonas vesicatoria DSM 50861
Alternaria alternata = test system: Alternaria alternata
[20] = test system: Clavibacter michiganensis subsp. michiganensis DSM 46294
[21] = test system: Pseudomonas syringae pv. syringae DSM 10604
[22] = test system: Pseudomonas corrugata DSM 7228
[23] = test system: Pectobacterium carotovorum subsp. carotovorum DSM 30168
Cladosporium herbarum = test system: Cladosporium herbarum
[24] = test system: Staphylococcus aureus 90857
[25] = test system: Streptococcus agalactiae ATCC 13813
[26] = test system: Acinetobacter baumannii LMG 01041
[27] = test system: Streptococcus pneumoniae ATCC 700677
[28] = test system: Shewanella putrefaciens ATCC 49138
[29] = test system: Escherichia coli LMG 15862
[30] = test system: Klebsiella pneumoniae LMG 20218
[31] = test system: Enterococcus faecium ATCC 51559
[32] = test system: Pseudomonas aeruginosa ATCC 10145
[33] = test system: Candida albicans ATCC 10231
[34] = test system: Salmonella enterica subsp. enterica serovar Enteritidis ATCC 13076
Fusarium oxysporum LD21 = test system: Fusarium oxysporum LD21
[35] = test system: Klebsiella pneumoniae ATCC 700603
[36] = test system: Pseudomonas aeruginosa LMG 6395
[37] = test system: Escherichia coli CGSC 5167
[38] = test system: Listeria monocytogenes ATCC 19115
[39] = test system: Staphylococcus aureus ATCC 25923
[40] = test system: Klebsiella aerogenes LMG 02094
[41] = test system: Enterococcus faecalis JH-2-2
[42] = test system: Streptococcus pneumoniae ATCC 33400
[43] = test system: Campylobacter jejuni ATCC 33291
[44] = test system: Enterococcus faecium ATCC 35667
[45] = test system: Candida albicans ATCC 64550
[46] = test system: Staphylococcus epidermidis ATCC 29887
[47] = test system: Bacillus subtilis ATCC 9372
[48] = test system: Bacillus anthracis Sterne 34F2
[49] = test system: Burkholderia thailandensis

**Q.** CC[C@H](C)[C@H](NC(=O)[C@H](C)NC(=O)[C@H](CCCCN)NC(=O)[C@@H]1CCCN1C(=O)[C@@H](NC(=O)[C@H](CC(C)C)NC(=O)[C@H](CCCCN)NC(=O)[C@H](Cc1ccccc1)NC(=O)[C@H](CC(C)C)NC(=O)[C@@H](N)Cc1ccccc1)[C@@H](C)CC)C(=O)N[C@@H](CCCCN)C(=O)N[C@@H](CCCCN)C(=O)N[C@@H](CC(C)C)C(=O)N[C@H](C(=O)N[C@@H](CO)C(=O)N[C@@H](CCCCN)C(=O)N[C@@H](Cc1ccccc1)C(=O)N[C@@H](CCCCN)C(=O)O)[C@@H](C)CC [FLFKLIPKAIKKLISKFK] was tested. Which MIC [1] did it give?
**A.** The MIC was 1.85 µM (≈ 4 µg/mL).

**Q.** And the MIC [2]?
**A.** The MIC was 3.7 µM (≈ 8 µg/mL).

**Q.** And the MIC [3]?
**A.** Its MIC is 1.85 µM (≈ 4 µg/mL).

**Q.** What about the MIC [4] of the same compound?
**A.** The MIC was 5 µM (≈ 10.8 µg/mL).

**Q.** And the MIC [5]?
**A.** Its MIC is 5 µM (≈ 10.8 µg/mL).

**Q.** What about the MIC [6] of the same compound?
**A.** The MIC was 35 µM (≈ 75.7 µg/mL).

**Q.** And the MIC [7]?
**A.** Its MIC is 5 µM and 3 µM.

**Q.** And the MIC [8]?
**A.** The MIC was 5 µM (≈ 10.8 µg/mL).

**Q.** And the MIC [9]?
**A.** The MIC was 7.4 µM (≈ 16 µg/mL).

**Q.** What about the MIC [10] of the same compound?
**A.** The MIC was 5 µM (≈ 10.8 µg/mL).

**Q.** And the MIC [11]?
**A.** Its MIC is no less than 35 µM.

**Q.** And the MIC [12]?
**A.** Its MIC is 1.85 µM (≈ 4 µg/mL).

**Q.** And the MIC [13]?
**A.** Its MIC is 5 µM and 3 µM.

**Q.** What about the MIC [14] of the same compound?
**A.** The MIC was 7.5 µM (≈ 16.2 µg/mL).

**Q.** And the MIC [15]?
**A.** Its MIC is 14.8 µM (≈ 32 µg/mL).

**Q.** What about the MIC [16] of the same compound?
**A.** Its MIC is 5 µM (≈ 10.8 µg/mL).

**Q.** What about the MIC [17] of the same compound?
**A.** Its MIC is 7.5 µM (≈ 16.2 µg/mL).

**Q.** With CC[C@H](C)[C@H](NC(=O)[C@H](Cc1ccccc1)NC(=O)[C@H](CCCN=C(N)N)NC(=O)[C@H](CCCCN)NC(=O)[C@H](CC(C)C)NC(=O)[C@H](Cc1ccccc1)NC(=O)[C@H](CCCCN)NC(=O)[C@@H](NC(=O)[C@H](CC(C)C)NC(=O)[C@@H](N)CC(C)C)[C@@H](C)CC)C(=O)N[C@@H](CCCCN)C(=O)N[C@@H](Cc1cnc[nH]1)C(N)=O [LLIKFLKRFIKH] as the compound, how does the MIC [18] read?
**A.** The MIC was 3.21 µM (≈ 5 µg/mL).

**Q.** What about the MIC (Botrytis cinerea) of the same compound?
**A.** Its MIC is no less than 64.3 µM.

**Q.** What about the MIC [19] of the same compound?
**A.** The MIC was 3.21 µM (≈ 5 µg/mL).

**Q.** And the MIC (Alternaria alternata)?
**A.** Its MIC is no less than 64.3 µM.

**Q.** And the MIC [20]?
**A.** The MIC was 3.21 µM (≈ 5 µg/mL).

**Q.** And the MIC [21]?
**A.** Its MIC is 6.43 µM (≈ 9.99 µg/mL).

**Q.** What about the MIC [22] of the same compound?
**A.** The MIC was 6.43 µM (≈ 9.99 µg/mL).

**Q.** What about the MIC [23] of the same compound?
**A.** Its MIC is 25.7 µM (≈ 40 µg/mL).

**Q.** What about the MIC (Cladosporium herbarum) of the same compound?
**A.** Its MIC is 12.9 µM (≈ 20 µg/mL).

**Q.** Which MIC [18] does the source give for CC[C@H](C)[C@H](NC(=O)[C@H](CCCCN)NC(=O)[C@H](CCCCN)NC(=O)[C@H](CC(C)C)NC(=O)[C@H](Cc1ccccc1)NC(=O)[C@H](CCCN=C(N)N)NC(=O)[C@@H](N)CC(C)C)C(=O)N[C@@H](CC(C)C)C(=O)N[C@@H](CCCCN)C(=O)N[C@@H](CCCCN)C(=O)N[C@@H](CC(C)C)C(=O)N[C@@H](Cc1ccccc1)C(N)=O [LRFLKKILKKLF] here?
**A.** The MIC was 0.646 µM (≈ 0.999 µg/mL).

**Q.** And the MIC [19]?
**A.** The MIC was 1.62 µM (≈ 2.5 µg/mL).

**Q.** And the MIC [24]?
**A.** Its MIC is 1.5 µM (≈ 2.32 µg/mL).

**Q.** And the MIC [20]?
**A.** Its MIC is 0.646 µM (≈ 0.999 µg/mL).

**Q.** What about the MIC [21] of the same compound?
**A.** Its MIC is 1.62 µM (≈ 2.5 µg/mL).

**Q.** And the MIC [22]?
**A.** Its MIC is 1.62 µM (≈ 2.5 µg/mL).

**Q.** And the MIC [23]?
**A.** Its MIC is 1.62 µM (≈ 2.5 µg/mL).

**Q.** What does the source list for CC[C@H](C)[C@H](NC(=O)[C@H](CCCN=C(N)N)NC(=O)[C@H](CCCN=C(N)N)NC(=O)[C@H](Cc1ccccc1)NC(=O)[C@H](CC(C)C)NC(=O)[C@H](CCCN=C(N)N)NC(=O)[C@@H](N)CCCN=C(N)N)C(=O)N[C@@H](CC(C)C)C(=O)N[C@@H](CCCN=C(N)N)C(=O)N[C@@H](Cc1c[nH]c2ccccc12)C(=O)N[C@@H](CC(C)C)C(N)=O [RRLFRRILRWL]?
**A.** MIC [25]: 1.89 µM (≈ 3 µg/mL); MIC [26]: 2 µM (≈ 3.17 µg/mL); MIC [27]: 0.4 µM (≈ 0.634 µg/mL); MIC [28]: 3.79 µM (≈ 6 µg/mL); MIC [29]: 2 µM (≈ 3.17 µg/mL); MIC [30]: 4 µM (≈ 6.34 µg/mL); MIC [5]: 0.1 µM (≈ 0.158 µg/mL); MIC [31]: 1 µM (≈ 1.58 µg/mL); MIC [6]: 1.5 µM (≈ 2.38 µg/mL); MIC [32]: 2.5 µM (≈ 3.96 µg/mL); MIC [33]: 7.57 µM (≈ 12 µg/mL); MIC [7]: 3.79 µM (≈ 6 µg/mL); MIC [34]: 3.79 µM (≈ 6 µg/mL); MIC (Fusarium oxysporum LD21): 7.57 µM (≈ 12 µg/mL); MIC [35]: 0.3 µM (≈ 0.475 µg/mL); MIC [36]: 3 µM (≈ 4.75 µg/mL); MIC [37]: 0.2 µM (≈ 0.317 µg/mL); MIC [38]: 3.79 µM (≈ 6 µg/mL); MIC [39]: 0.8 µM (≈ 1.27 µg/mL); MIC [40]: 8 µM (≈ 12.7 µg/mL); MIC [41]: 15.8 µM (≈ 25 µg/mL); MIC [42]: 0.8 µM (≈ 1.27 µg/mL); MIC [43]: 3.79 µM (≈ 6 µg/mL); MIC [44]: 1 µM (≈ 1.58 µg/mL); MIC [13]: 0.3 µM (≈ 0.475 µg/mL); MIC [14]: 0.5 µM (≈ 0.792 µg/mL); MIC [45]: ≥ 100 µM; MIC [46]: 1.89 µM (≈ 3 µg/mL)

**Q.** Which MIC [47] does the source give for CSCC[C@H](NC(=O)[C@H](CO)NC(=O)[C@H](Cc1ccc(O)cc1)NC(=O)[C@H](CO)NC(C)=O)C(=O)N[C@@H](CCC(=O)O)C(=O)N[C@@H](Cc1cnc[nH]1)C(=O)N[C@@H](Cc1ccccc1)C(=O)N[C@@H](CCCN=C(N)N)C(=O)N[C@@H](Cc1c[nH]c2ccccc12)C(=O)NCC(=O)N[C@@H](CCCCN)C(=O)N1CCC[C@H]1C(=O)N[C@H](C(N)=O)C(C)C [SYSMEHFRWGKPV] here?
**A.** Its MIC is no less than 100 µM.

**Q.** What about the MIC [48] of the same compound?
**A.** Its MIC is no less than 100 µM.

**Q.** What about the MIC [49] of the same compound?
**A.** Its MIC is no less than 50 µM.
